From patent US10294202B2, “Pyrrolidinones as herbicides” (FMC Corporation, priority 2013, dated 2019)

How the values were obtained:
morningglory = test: Test A pre-/postemergence herbicide test; assay type: in vivo, Ipomoea spp.; conditions: for Morningglory plant response rating: visual rating on 0 to 100 scale (0 no effect, 100 complete control)
Outline: (§1)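 Scoring was visual, relative to untreated controls, on a 0–100 scale after about 10 greenhouse days. Preemergence treatment used a directed soil spray over seeded loam/sand; postemergence treatment targeted one- to two-leaf plants of 2–10 cm.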

ducksalad = test: Test B flooded paddy test; assay type: in vivo, Heteranthera limosa; conditions: Flood, scale of 0 to 100 where 0 is no effect and 100 is complete control
Outline: (§2)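 Scoring: visual, compared with untreated controls, 0 = no effect through 100 = complete control, taken 13 to 15 days after treatment in the greenhouse. Compounds had been added to paddy water over soil flooded 3 cm deep at the plants' 2-leaf stage.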

velvetleaf = test: Test A pre-/postemergence herbicide test; assay type: in vivo, Abutilon theophrasti
Outline: as §1

corn = test: Test A pre-/postemergence herbicide test; assay type: in vivo, Zea mays
Outline: as §1

sedge, umbrella = test: Test B flooded paddy test; assay type: in vivo, Cyperus difformis; conditions: Flood, scale of 0 to 100 where 0 is no effect and 100 is complete control
Outline: as §2

rice = test: Test B flooded paddy test; assay type: in vivo, Oryza sativa; conditions: Flood, scale of 0 to 100 where 0 is no effect and 100 is complete control
Outline: as §2

barnyardgrass [1] = test: Test B flooded paddy test; assay type: in vivo, Echinochloa crus-galli; conditions: Flood, scale of 0 to 100 where 0 is no effect and 100 is complete control
Outline: as §2

pigweed = test: Test A pre-/postemergence herbicide test; assay type: in vivo, Amaranthus retroflexus
Outline: as §1

giant foxtail = test: Test A pre-/postemergence herbicide test; assay type: in vivo, Setaria faberii
Outline: as §1

wheat = test: Test A pre-/postemergence herbicide test; assay type: in vivo, Triticum aestivum
Outline: as §1

barnyardgrass [2] = test: Test A pre-/postemergence herbicide test; assay type: in vivo, Echinochloa crus-galli
Outline: as §1

crabgrass, large = test: Test A pre-/postemergence herbicide test; assay type: in vivo, Digitaria sanguinalis
Outline: as §1

[3] = Postemergence, 125 g ai/ha, 0 to 100 scale, 0 is no effect, 100 is complete control
[4] = Postemergence, 500 g ai/ha, 0 to 100 scale (0 no effect, 100 complete control)
[5] = Preemergence, 125 g ai/ha, 0 to 100 scale where 0 is no effect and 100 is complete control
[6] = preemergence, 500 g ai/ha, 0 to 100 scale, 0 is no effect and 100 is complete control
[7] = Postemergence, 125 g ai/ha, 0 to 100 scale, 0 no effect, 100 complete control
[8] = preemergence, 500 g ai/ha, 0 to 100 scale
[9] = Preemergence, 125 g ai/ha, visual rating on 0 to 100 scale (0 no effect, 100 complete control)
[10] = preemergence, 500 g ai/ha, 0 to 100 scale (0 no effect, 100 complete control)
[11] = Postemergence, 1000 g ai/ha, 0 to 100 scale (0 no effect, 100 complete control)
[12] = Preemergence, 1000 g ai/ha, visual rating on 0 to 100 scale (0 no effect, 100 complete control), approx. 10 days

O=C1NCC(c2ccc(C(F)(F)F)cc2F)C1C(=O)Nc1ccccc1F (racemic) [Compound 259]
Plant response rating, Morningglory (morningglory; [3]): 0 | Plant response rating, Morningglory (morningglory; [4]): 0 | Plant response rating, Morningglory (morningglory; [5]): 0 | Plant response rating, Morningglory (morningglory; [6]): 0 | Plant response rating, Ducksalad (ducksalad; 1000 g ai/ha): 90 | Plant response rating, Velvetleaf (velvetleaf; [3]): 0 | Plant response rating, Velvetleaf (velvetleaf; [4]): 0 | Plant response rating, Velvetleaf (velvetleaf; [5]): 0 | Plant response rating, Velvetleaf (velvetleaf; [6]): 0 | Plant response rating, Corn (corn; [3]): 0 | Plant response rating, Corn (corn; [4]): 0 | Plant response rating, Corn (corn; [5]): 0 | Plant response rating, Corn (corn; [6]): 0 | Plant response rating, Sedge, Umbrella (sedge, umbrella; 1000 g ai/ha): 10 | Plant response rating, Rice (rice; 1000 g ai/ha): 10 | Plant response rating, Barnyardgrass (barnyardgrass [1]; 1000 g ai/ha): 20 | Plant response rating, Pigweed (pigweed; [3]): 0 | Plant response rating, Pigweed (pigweed; [4]): 0 | Plant response rating, Pigweed (pigweed; [5]): 0 | Plant response rating, Pigweed (pigweed; [6]): 0 | Plant response rating, Foxtail, Giant (giant foxtail; [3]): 50 | Plant response rating, Foxtail, Giant (giant foxtail; [4]): 70 | Plant response rating, Foxtail, Giant (giant foxtail; [5]): 60 | Plant response rating, Foxtail, Giant (giant foxtail; [6]): 90 | Plant response rating, Wheat (wheat; [3]): 0 | Plant response rating, Wheat (wheat; [4]): 0 | Plant response rating, Wheat (wheat; [5]): 0 | Plant response rating, Wheat (wheat; [6]): 0 | Plant response rating, Barnyardgrass (barnyardgrass [2]; [3]): 50 | Plant response rating, Barnyardgrass (barnyardgrass [2]; [4]): 70 | Plant response rating, Barnyardgrass (barnyardgrass [2]; [5]): 10 | Plant response rating, Barnyardgrass (barnyardgrass [2]; [6]): 80 | Plant response rating, Crabgrass, Large (crabgrass, large; [3]): 80 | Plant response rating, Crabgrass, Large (crabgrass, large; [4]): 90 | Plant response rating, Crabgrass, Large (crabgrass, large; [6]): 90

O=C1NCC(c2ccc(F)c(F)c2)C1C(=O)Nc1cccc(F)c1C(F)(F)F (stereo not drawn) [Compound 67]
Plant response rating, Morningglory (morningglory; [7]): 0 | Plant response rating, Morningglory (morningglory; [4]): 0 | Morningglory plant response rating (morningglory; Preemergence, 125 g ai/ha): 0 | Plant response rating, Morningglory (morningglory; [8]): 0 | Plant response rating, Ducksalad (ducksalad; 250 g ai/ha): 70 | Plant response rating, Velvetleaf (velvetleaf; [7]): 0 | Plant response rating, Velvetleaf (velvetleaf; [4]): 0 | Velvetleaf plant response rating (velvetleaf; [9]): 0 | Plant response rating, Velvetleaf (velvetleaf; [8]): 0 | Plant response rating, Corn (corn; [7]): 0 | Plant response rating, Corn (corn; [4]): 0 | Corn plant response rating (corn; [9]): 0 | Plant response rating, Corn (corn; [8]): 0 | Plant response rating, Sedge, Umbrella (sedge, umbrella; 250 g ai/ha): 50 | Plant response rating, Rice (rice; 250 g ai/ha): 0 | Plant response rating, Barnyardgrass (barnyardgrass [1]; 250 g ai/ha): 0 | Plant response rating, Pigweed (pigweed; [7]): 0 | Plant response rating, Pigweed (pigweed; [4]): 20 | Pigweed plant response rating (pigweed; [9]): 0 | Plant response rating, Pigweed (pigweed; [8]): 0 | Plant response rating, Foxtail, Giant (giant foxtail; [7]): 80 | Plant response rating, Foxtail, Giant (giant foxtail; [4]): 90 | Foxtail, Giant plant response rating (giant foxtail; [9]): 80 | Plant response rating, Foxtail, Giant (giant foxtail; [8]): 90 | Plant response rating, Wheat (wheat; [7]): 0 | Plant response rating, Wheat (wheat; [4]): 0 | Wheat plant response rating (wheat; [9]): 0 | Plant response rating, Wheat (wheat; [8]): 0 | Plant response rating, Barnyardgrass (barnyardgrass [2]; [7]): 40 | Plant response rating, Barnyardgrass (barnyardgrass [2]; [4]): 60 | Barnyardgrass plant response rating (barnyardgrass [2]; [9]): 30 | Plant response rating, Barnyardgrass (barnyardgrass [2]; [10]): 70 | Plant response rating, Crabgrass, Large (crabgrass, large; [7]): 50 | Plant response rating, Crabgrass, Large (crabgrass, large; [4]): 90 | Crabgrass, Large plant response rating (crabgrass, large; [9]): 90 | Plant response rating, Crabgrass, Large (crabgrass, large; [8]): 90

Cn1ccc(NC(=O)C2C(=O)NCC2c2ccc(F)c(F)c2)n1 (stereo not drawn) [Compound 31]
Plant response rating, Morningglory (morningglory; [11]): 0 | Plant response rating, Ducksalad (ducksalad; 250 g ai/ha): 0 | Plant response rating, Velvetleaf (velvetleaf; [11]): 0 | Plant response rating, Velvetleaf (velvetleaf; [12]): 0 | Plant response rating, Corn (corn; [11]): 30 | Plant response rating, Corn (corn; [12]): 20 | Plant response rating, Sedge, Umbrella (sedge, umbrella; 250 g ai/ha): 0 | Plant response rating, Rice (rice; 250 g ai/ha): 0 | Plant response rating, Barnyardgrass (barnyardgrass [1]; 250 g ai/ha): 0 | Plant response rating, Pigweed (pigweed; [11]): 0 | Plant response rating, Pigweed (pigweed; [12]): 0 | Plant response rating, Foxtail, Giant (giant foxtail; [11]): 20 | Plant response rating, Foxtail, Giant (giant foxtail; [12]): 80 | Plant response rating, Wheat (wheat; [11]): 0 | Plant response rating, Wheat (wheat; [12]): 50 | Plant response rating, Barnyardgrass (barnyardgrass [2]; [11]): 60 | Plant response rating, Barnyardgrass (barnyardgrass [2]; [12]): 50 | Plant response rating, Crabgrass, Large (crabgrass, large; [11]): 20 | Plant response rating, Crabgrass, Large (crabgrass, large; [12]): 80

O=C1NCC(c2ccc(F)c(F)c2)C1C(=O)Nc1cccc2c1OC(F)(F)O2 (stereo not drawn) [Compound 57]
Plant response rating, Morningglory (morningglory; [7]): 0 | Plant response rating, Morningglory (morningglory; [4]): 0 | Morningglory plant response rating (morningglory; Preemergence, 125 g ai/ha): 0 | Plant response rating, Morningglory (morningglory; [8]): 0 | Plant response rating, Ducksalad (ducksalad; 250 g ai/ha): 0 | Plant response rating, Velvetleaf (velvetleaf; [7]): 0 | Plant response rating, Velvetleaf (velvetleaf; [4]): 0 | Velvetleaf plant response rating (velvetleaf; [9]): 0 | Plant response rating, Velvetleaf (velvetleaf; [8]): 0 | Plant response rating, Corn (corn; [7]): 0 | Plant response rating, Corn (corn; [4]): 0 | Corn plant response rating (corn; [9]): 0 | Plant response rating, Corn (corn; [8]): 0 | Plant response rating, Sedge, Umbrella (sedge, umbrella; 250 g ai/ha): 0 | Plant response rating, Rice (rice; 250 g ai/ha): 0 | Plant response rating, Barnyardgrass (barnyardgrass [1]; 250 g ai/ha): 0 | Plant response rating, Pigweed (pigweed; [7]): 0 | Plant response rating, Pigweed (pigweed; [4]): 0 | Pigweed plant response rating (pigweed; [9]): 0 | Plant response rating, Pigweed (pigweed; [8]): 0 | Plant response rating, Foxtail, Giant (giant foxtail; [7]): 50 | Plant response rating, Foxtail, Giant (giant foxtail; [4]): 60 | Foxtail, Giant plant response rating (giant foxtail; [9]): 60 | Plant response rating, Foxtail, Giant (giant foxtail; [8]): 80 | Plant response rating, Wheat (wheat; [7]): 0 | Plant response rating, Wheat (wheat; [4]): 0 | Wheat plant response rating (wheat; [9]): 0 | Plant response rating, Wheat (wheat; [8]): 0 | Plant response rating, Barnyardgrass (barnyardgrass [2]; [7]): 70 | Plant response rating, Barnyardgrass (barnyardgrass [2]; [4]): 80 | Barnyardgrass plant response rating (barnyardgrass [2]; [9]): 40 | Plant response rating, Barnyardgrass (barnyardgrass [2]; [10]): 80 | Plant response rating, Crabgrass, Large (crabgrass, large; [7]): 50 | Plant response rating, Crabgrass, Large (crabgrass, large; [4]): 70 | Crabgrass, Large plant response rating (crabgrass, large; [9]): 80 | Plant response rating, Crabgrass, Large (crabgrass, large; [8]): 90
